Tests used:
ΔTRα1 = ΔTRα1 (Rattus norvegicus, UniProt P63059); assay: [125I]rT3 displacement from cell-free translated ΔTRα1; format: binding; details: cell-free translated polypeptide
Text: ΔTRα1 and ΔTRα2 polypeptides were synthesized by cell-free translation of appropriate segments of the rat ΔTRα1 and ΔTRα2 cDNA using the coupled transcription-translation kit from Promega® (TNT) according to the manufacturer's instructions.

[1] = test system: cerebellar granule neurons; assay: release of FM1-43-loaded synaptic vesicles from cerebellar granule neurons under continuous stimulus; format: cell-based, rat; details: 10 nM hormone; continuous stimulation by 50 mM KCl; vs no hormone controls; first order kinetics assumed
Description: Granule neurons were grown for 7 days and rendered hormone free by growth in serum-free medium as detailed above. Coverslips were then placed in a perfusion chamber, mounted on the stage of a laser scanning confocal microscope and perfused at 1 ml/min at 25° C. with perfusion buffer (119 mM NaCl, 2.5 mM KCl, 2 mM CaCl2, 2 mM MgCl2, 25 mM HEPES (pH 7.4), 30 mM glucose, and […] AP-5). The effects of different hormones on synaptic vesicle trafficking were then determined. […] Depolarizing KCl was then removed from the perfusion buffer and the cells were exposed to FM1-43 for an additional 30 seconds to insure complete loading of recycling synaptic vesicles. Loaded cells were then washed free of dye and the cells were perfused for ten minutes at rest.
Images of a single field of neuronal fibers were then taken immediately before adding a second depolarizing solution (perfusion buffer containing 50 mM KCl) and at one and two minutes after beginning the continuous stimulation by 50 mM KCl. Thirty to forty-five individual FM1-43 labeled nerve terminals were identified in the baseline images (taken prior to depolarization) and the change in fluorescence (DF) for each nerve terminal determined at the one and two minute time points. FIGS. 11A and 11B show the results of analysis of the hormone specificity of synaptic vesicle trafficking (FIG. 11A) and the influence of individual myo5a mutants (FIG. 11B) on synaptic vesicle transport in granule neurons.
To evaluate the role of myo5a in synaptic vesicle transport, three different myo5a constructs were introduced into the neurons by replication-deficient adenoviral vectors (Δmyo5a^tail(MyoV^tail), Δmyo5a^c-term(MyoV^1830)and ΔMyo5a^CC(MyoV^cc) see FIG. 5) as described above. […] Neurons were infected with purified Ad5-constructs (MOI=10) 48 hours prior to the synaptic vesicle trafficking study, and allowed to recover in hormone (T4) supplemented medium. […] This modest influence of the VBD mutant on synaptic vesicle retention is likely to be due to the loss of the kinesin-binding domain that limits its delivery to nerve terminals.

D2 activity = details: in astrocytes; cited from earlier work
[2] = test system: binding of p29 vesicles to F-actin; assay: in vitro actin binding assay with BrAc[125I]T4-labeled p29 vesicles; format: biochemical, rat; details: 10 nM hormone, 20 minutes at 37° C.
Description: Actin binding of the p29 vesicles was then initiated by addition of 10 nM T4, and the Triton-insoluble (F-actin bound) pellet was separated from the Triton-soluble (vesicle) fraction.
An in vitro binding assay was developed whose principle is based on the hormone dependent redistribution of affinity labeled p29 between the Triton-soluble (vesicle pool) and Triton-insoluble (F-actin cytoskeleton) fractions. The assay was used to examine the hormone dependent relationship between the p29-containing endosome and the F-actin cytoskeleton. Two different pools of astrocytes were prepared. […] The other astrocyte pool was used to prepare affinity BrAc [^125 I]T4-labeled p29 vesicles from thyroid-deficient cells (V-lysate; Farwell et al. 1990, J. Biol. Chem. 265:18546-18553). V-lysates were prepared from cAMP-stimulated astrocytes grown in serum-free media that were labeled with 2 nM BrAc[^125 I]T4 as described in Farwell et al. (1990, J. Biol. Chem. 265:18546-18553). […]
After the incubation, the mixtures were chilled on ice for 2 minutes, then Triton X-100® (0.5% v/v, final) was added and the soluble (Triton supernatant, vesicles) and insoluble (Triton pellet, F-actin) fractions were separated by microfuge centrifugation at 4° C. for 5 minutes. The distribution of [^125 I]-labeled p29 was then determined by SDS PAGE analysis.

[3] = test system: cerebellar granule neurons; assay: FM1-43 synaptic vesicle recycling in cultured cerebellar granule neurons, spontaneous activity; format: cell-based, rat
Description: All of the major components of hormone-induced vesicle trafficking in astrocytes (actin fibers, myosin V (also referred to as myosin 5a and myo 5a), and recycling vesicles) are also present in nerve terminals. Therefore, the effects of thyroid hormone on synaptic vesicle recycling in the presynaptic nerve terminal were examined using myo5a-dependent synaptic vesicle (SV) recycling in cultured cerebellar granule neurons. In these experiments, rat granule neurons were grown on laminin-coated coverslips in the absence or presence of hormone and synaptic vesicle recycling was examined using FM1-43 (a styryl dye used in the art for studying endocytosis and exocytosis, e.g., in synaptic vesicle uptake and release assays; Molecular Probes, Inc. Eugene, Oreg.). […] In contrast, granule neurons grown in thyroid hormone supplemented medium released only 15-20% of the FM1-43 after six minutes of incubation and the hormone specificity of retention of FM1-43 in the “reserve pool” was identical to that determined for myo5a-dependent, endocytosis of p29 vesicles (D2p29 vesicles) in astrocytes.
Cerebellar granule neurons were examined because thyroid hormone has a profound influence on granule neuron viability during cerebellar maturation (Xiao and Nikodem, 1998, Front. Biosci. 3: A52-57; Rabie et al., 1980, Brain Res. 190:409-414), and because of the effects of the loss of myo5a on synaptic vesicle homeostasis (Bridgman, 1999, J. Cell Biol. 146:1045-1060). […]
Experiments were conducted to determine whether synaptic vesicle endocytosis could be altered by the hormone status of the neuron. […] The dye was then removed and the number, intensity and retention of the FM1-43 in random nerve terminals immediately after washing and after six minutes of autonomous activity were analyzed in paraformaldehyde fixed cells (Ryan, 1999, J. Neurosci.: 19:1317-1323). Fluorescence in single nerve terminals (ROI=7×7 pixels) and in an adjacent segment of the neuronal fiber were measured for 40-45 individual nerve terminals. […] Fluorescence intensity was determined using NIH Image software. The total FM1-43 fluorescence in a nerve terminal represents the sum of the dye-loaded synaptic vesicles in the readily releasable and the reserve pools.
By allowing recurrent activity, the FM1-43 filled synaptic vesicles present in the readily releasable pool will be progressively depleted. […] By measuring the total FM1-43 content in random nerve terminals immediately after loading and at 30 second intervals for six minutes of spontaneous activity, the influence of hormones on the distribution of recycling synaptic vesicles between the readily releasable and reserve pools was estimated.

Sequence of ΔTRα1 (P63059 256-370, stated change not applied): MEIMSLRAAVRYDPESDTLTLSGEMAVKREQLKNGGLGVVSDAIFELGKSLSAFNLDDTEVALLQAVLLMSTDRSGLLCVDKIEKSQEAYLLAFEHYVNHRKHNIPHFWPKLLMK

N[C@@H](Cc1cc(I)c(Oc2cc(I)c(O)c(I)c2)c(I)c1)C(=O)O [T4, thyroxine]
Kd (ΔTRα1): 300 to 1000 pM
decrease of the rate of FM1-43 release [1]: 75%
quantity of D2 activity (D2 activity): decreases the quantity of D2 activity
radiolabeled p29 bound to the Triton insoluble, F-actin fraction [2]: more than 70%
endocytosed FM1-43 retained ([3]; acute treatment, after three minutes of spontaneous stimulation): > 90%
uptake of FM1-43 ([3]; immediately after loading): No differences

Source: patent US7374890B2, “Methods for identifying compounds that modulate ΔTRα2 activity” (University of Massachusetts, priority 2000, dated 2008)
